# Test results reported in paper PMC9601670, “Solubility Enhancement, Formulation Development, and Antibacterial Activity of Xanthan-Gum-Stabilized Colloidal Gold Nanogel of Hesperidin against Proteus vulgaris” (Gels, 2022).
# Assays:
# [1] = Solubility study of HSP (shake flask); format: physicochemical; conditions: for Hesperidin Solubility: shaken 24 h, room temperature
# Experimental: The solubility of HSP was determined by adopting the standard shake flask technique according to the method described by Majumdar and colleagues. The screening of the solution was performed by evaluating the solubility of HSP (10% (w/v) with respect to pH solution. To perform this experiment, 10% w/v of HSP was added to a glass vial containing 5 mL of the chosen solvent and tightly sealed. To ensure homogeneous mixing, the samples were shaken continuously for 24 h in a water bath at room temperature and 50 rpm. After 24 h, samples were centrifuged at 4500 rpm and HSP was assayed in the supernatant. Solubility was determined in water and in buffers with pH values ranging from 1.2 to 6.8. In addition, the effect of XA-stabilized AuNPs on the solubility of hesperidin was examined to determine by how much the solubility was increased.
# [2] = system: Proteus vulgaris (MTCC 7299); assay: Minimum inhibitory concentration (microtiter plate dilution); format: cell-based; conditions: P. vulgaris MTCC 7299, 37 °C, 24 h, absorbance 640 nm; method: concentration that inhibited 50% of bacterial growth
# Experimental: Briefly, stock solutions of XA@AuNPs gel and HSP@XA@AuNPs gel were prepared in water to ensure complete solubilization at a concentration of 1 mg/mL. A total of 100 µL of nutrient broth and Sabouraud dextrose broth was added to wells 1 to 10. XA@AuNPs gel and HSP@XA@AuNPs gel samples (100 µL) were added to the first well. The solution was serially diluted from well 1 to well 10, while 100 µL from well 10 was discarded. Then 100 µL of the bacterial suspension was added to all dilution wells from well 1 to well 10. The overnight bacterial suspension (100 µL) was added to well 11, and 100 µL of sterile broth was added to serve as a positive control or growth control, while 200 µL of sterile nutrient broth and Sabouraud dextrose broth in well 12 served as a negative control or sterility control. The plate was incubated at 37 °C for 24 h. After incubation, absorbance in each well was measured using an ELISA reader (Erba) at a wavelength of 640 nm. The procedure described above was performed for each microbial strain. The concentration of the sample and standard that inhibited 50% of bacterial growth was determined for all microorganisms. All tests were performed in triplicate to minimize error.
structure (smiles),measurement,setting,value
"COc1ccc([C@@H]2CC(=O)c3c(O)cc(O[C@@H]4O[C@H](CO[C@@H]5O[C@@H](C)[C@H](O)[C@@H](O)[C@H]5O)[C@@H](O)[C@H](O)[C@H]4O)cc3O2)cc1O [HSP, hesperidin]",Hesperidin Solubility,[1]; Water,4.09 ± 0.20 µg/mL
same,Hesperidin Solubility,[1]; XA-stabilized AuNPs as solvent,62.23 ± 3.1 µg/mL
same,Solubility increase by addition of XA-stabilized AuNPs compared to water,[1]; XA-stabilized AuNPs vs water,15 fold
same,Hesperidin Solubility,[1]; pH 1.2 buffer,2.44 ± 0.12 µg/mL
same,Hesperidin Solubility,[1]; pH 5.0 buffer,3.42 ± 0.17 µg/mL
same,Hesperidin Solubility,[1]; pH 6.8 buffer,6.19 ± 0.30 µg/mL
same,MIC,[2],9.2 µg/mL
